Data reported in US20220211594A1, “TOPICAL COMPOSITIONS” (DSM IP ASSETS B.V., priority 2019, published 2022).

Legend:
[1] = test system: Bacterial cocktail (E. Coli, P. aeruginosa, S. aureus); test: Preservation challenge test of inoculated O/W emulsion (ISO 11930), bacterial cocktail; format: cell-based; conditions: PTT: 0.3 wt -%, HG & EHG: 0.4 wt.-%
Description: (§1) The evaluation of the preservation of a cosmetic formulation is based on inoculation of the formulation as outlined in table 1 with calibrated inocula (prepared from relevant strains of micro-organisms). Therefore, to each formulation 0.2 ml of calibrated inoculum is added to obtain between 1×10^4 cfu/ml and 1×10^7 cfu/ml or g for bacteria, and between 1×10^2 cfu/ml and 1×10^6 cfu/ml or g for C. albicans and A. brasiliensis in the formulation (final concentration), which is mixed thoroughly into the formulation to ensure a homogeneous distribution of the inoculum. Then the respective containers containing the inoculated formulations are stored @ 22.5±2.5° C. At each specified sampling interval (initial (T0), 7 days (T7) and 28 days (T28)) 1 g of the inoculated formulation is taken and a dilution prepared to perform the enumeration of surviving micro-organisms. Then, for each time and each strain/strain mixture, the average log value is calculated which is represented in tables 2-6. (Procedure: see ISO 11930, chapter 5.2.-5.6.3.4. (page 3-13))

A. brasiliensis = test: Preservation challenge test of inoculated O/W emulsion (ISO 11930), A. brasiliensis; format: cell-based, Aspergillus brasiliensis
Description: as §1

C. albicans = test: Preservation challenge test of inoculated O/W emulsion (ISO 11930), C. albicans; format: cell-based, Candida albicans; conditions: PTT: 0.4 wt.-%, HG & EHG: 0.6 wt.-%
Description: as §1

[2] = PTT: 0.1 wt.-%, HG & EHG: 0.9 wt.-%, time 0 days
[3] = PTT: 0.1 wt.-%, HG & EHG: 0.9 wt.-%, time 7 days
[4] = PTT: 0.1 wt.-%, HG & EHG: 0.9 wt.-%, time 28 days
[5] = PTT: 0.3 wt.-%, HG & EHG: 0.4 wt.-%, time 0 days
[6] = PTT: 0.3 wt.-%, HG & EHG: 0.4 wt.-%, time 7 days
[7] = PTT: 0.3 wt.-%, HG & EHG: 0.4 wt.-%, time 28 days
[8] = PTT: 0.4 wt.-%, HG & EHG: 0.6 wt.-%, time 0 days
[9] = PTT: 0.4 wt.-%, HG & EHG: 0.6 wt.-%, time 7 days
[10] = PTT: 0.4 wt.-%, HG & EHG: 0.6 wt.-%, time 28 days

SMILES | Average log [cfu/ml] ([1]; time 0 days) | Average log [cfu/ml] ([1]; time 7 days) | Average log [cfu/ml] ([1]; time 28 days) | Average log [cfu/ml] (A. brasiliensis; [2]) | Average log [cfu/ml] (A. brasiliensis; [3]) | Average log [cfu/ml] (A. brasiliensis; [4]) | Average log [cfu/ml] (A. brasiliensis; [5]) | Average log [cfu/ml] (A. brasiliensis; [6]) | Average log [cfu/ml] (A. brasiliensis; [7]) | Average log [cfu/ml] (A. brasiliensis; [8]) | Average log [cfu/ml] (A. brasiliensis; [9]) | Average log [cfu/ml] (A. brasiliensis; [10]) | Average log [cfu/ml] (C. albicans; time 0 days) | Average log [cfu/ml] (C. albicans; time 7 days) | Average log [cfu/ml] (C. albicans; time 28 days)
CCCCC(CC)COCC(O)CO (stereo not drawn) [EHG, Ethylhexyl glycerine] | 5.3 log [cfu/ml] | 7.0 log [cfu/ml] | 6.5 log [cfu/ml] | 4.6 log [cfu/ml] | 4.2 log [cfu/ml] | 4.5 log [cfu/ml] | 4.6 log [cfu/ml] | 4.6 log [cfu/ml] | 4.6 log [cfu/ml] | 4.6 log [cfu/ml] | 4.4 log [cfu/ml] | 4.6 log [cfu/ml] | 3.2 log [cfu/ml] | 6.1 log [cfu/ml] | 6.0 log [cfu/ml]
CCCCCCOCC(O)CO (stereo not drawn) [HG, 3-(hexyloxy)-1,2-propanediol] | 4.9 log [cfu/ml] | 5.7 log [cfu/ml] | 5.6 log [cfu/ml] | 4.2 log [cfu/ml] | 1.3 log [cfu/ml] | 0 log [cfu/ml] | 4.7 log [cfu/ml] | 3.7 log [cfu/ml] | 3.5 log [cfu/ml] | 4.3 log [cfu/ml] | 3.6 log [cfu/ml] | 3.1 log [cfu/ml] | 4.3 log [cfu/ml] | 3.6 log [cfu/ml] | 3.1 log [cfu/ml]
CC(C)CCCC(C)CCCC(C)CCCC(C)(O)C(O)CO (stereo not drawn) [PTT, 3,7,11,15-tetramethyl-hexadecane-1,2,3-triol] | 6.5 log [cfu/ml] | 2 log [cfu/ml] | 2 log [cfu/ml] | 2.1 log [cfu/ml] | 3.6 log [cfu/ml] | 4.4 log [cfu/ml] | 6.3 log [cfu/ml] | 5.7 log [cfu/ml] | 5.8 log [cfu/ml] | 1.7 log [cfu/ml] | 3.5 log [cfu/ml] | 4.5 log [cfu/ml] | 3.0 log [cfu/ml] | 6.8 log [cfu/ml] | 7.1 log [cfu/ml]
